From patent US20230241226A1, “COMPOUNDS FOR TARGETED DEGRADATION OF CARRIER PROTEINS AND USES THEREOF” (CeMM - Forschungszentrum für Molekulare Medizin GmbH, priority 2019, published 2023)
Entries after “also recorded” stand apart in the source; their conditions may differ.

Biological target: T1, dTAG-HA SLC38A2 (knock-in) (Homo sapiens, UniProt Q96QD8+Q96SW2)
T1 construct: SLC38A2 was selected for endogenous tagging at the N-terminus; endogenous in cells
Assay: dTAG knock-in: degradation of endogenously tagged SLC38A2 induced by amino acid starvation
Assay type: cell-based
From the text: (A) dTAG knock-in: SLC38A2 was tagged at N-terminus with dTAG-HA. Blasticidn was used as the selection marker. Single cell clones were derived and characterized as previously described. Two representative clones, B7 and C9 are presented here.
(B) The expression of dTAG-HA SLC38A2 was induced by replacing the normal culture media with media deprived of amino acids and FBS. Expression of the endogenous SLC is induced rapidly and was monitored by immunofluorescence imaging and quantified by automated image analysis. Representative images are shown.
(C)The effect of amino acid starvation on dTAG-HA SLC38A2 expression in HAP1 cells. Cells were treated with 0.5 µM dTAG13 and/or media lacking amino acids/FBS for either 6 or 10 hours, after which expression and degradation were monitored via western blot.
(D) Immunofluorescence imaging of two different HAP1 clones expressing dTAG-HA SLC38A2. Cells were incubated in media lacking amino acids/FBS for 8 hours and treated with 0.5 µM dTAG13 for either 8 or 10 hours. Expression of the endogenous SLC is induced rapidly and was monitored by immunofluorescence and quantified by automated image analysis. Representative images are presented.
HEK293T, LS180 were obtained from ATCC (Manassas, VA, USA), HAP1 WT, HAP1 -/-SLC38A2 (HZGHC001975c003), HAP1 -/-SLC38A9 (HZGHC000777c011) were obtained from Horizon Genomics. […]
For immunoblotting, whole cell extracts were prepared using RIPA lysis buffer (25 mM Tris/HCl pH 7.6, 150 mM NaCl, 1% NP-40, 1% sodium deoxycholate, 0.1% SDS, EDTA-free protease inhibitor (Roche) and phosphatase inhibitors 2+3 (Sigma- Aldrich)). […] Protein extracts were quantified and normalized using the BCA assay (Thermo Scientific). […]

T1 sequence (Q96SW2 whole entry): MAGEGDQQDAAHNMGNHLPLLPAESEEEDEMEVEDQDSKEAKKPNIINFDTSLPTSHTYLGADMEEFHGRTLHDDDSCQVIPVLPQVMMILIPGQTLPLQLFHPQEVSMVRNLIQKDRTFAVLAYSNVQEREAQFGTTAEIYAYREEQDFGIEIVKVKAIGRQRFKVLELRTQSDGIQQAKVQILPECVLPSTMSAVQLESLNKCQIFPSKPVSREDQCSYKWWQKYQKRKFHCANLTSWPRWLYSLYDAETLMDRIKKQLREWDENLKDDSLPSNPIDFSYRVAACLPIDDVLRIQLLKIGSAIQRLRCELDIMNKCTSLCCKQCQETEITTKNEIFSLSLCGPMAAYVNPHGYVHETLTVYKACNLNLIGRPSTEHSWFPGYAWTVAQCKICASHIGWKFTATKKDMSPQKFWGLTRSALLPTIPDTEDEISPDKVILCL
T1 sequence (Q16531 whole entry, further chain): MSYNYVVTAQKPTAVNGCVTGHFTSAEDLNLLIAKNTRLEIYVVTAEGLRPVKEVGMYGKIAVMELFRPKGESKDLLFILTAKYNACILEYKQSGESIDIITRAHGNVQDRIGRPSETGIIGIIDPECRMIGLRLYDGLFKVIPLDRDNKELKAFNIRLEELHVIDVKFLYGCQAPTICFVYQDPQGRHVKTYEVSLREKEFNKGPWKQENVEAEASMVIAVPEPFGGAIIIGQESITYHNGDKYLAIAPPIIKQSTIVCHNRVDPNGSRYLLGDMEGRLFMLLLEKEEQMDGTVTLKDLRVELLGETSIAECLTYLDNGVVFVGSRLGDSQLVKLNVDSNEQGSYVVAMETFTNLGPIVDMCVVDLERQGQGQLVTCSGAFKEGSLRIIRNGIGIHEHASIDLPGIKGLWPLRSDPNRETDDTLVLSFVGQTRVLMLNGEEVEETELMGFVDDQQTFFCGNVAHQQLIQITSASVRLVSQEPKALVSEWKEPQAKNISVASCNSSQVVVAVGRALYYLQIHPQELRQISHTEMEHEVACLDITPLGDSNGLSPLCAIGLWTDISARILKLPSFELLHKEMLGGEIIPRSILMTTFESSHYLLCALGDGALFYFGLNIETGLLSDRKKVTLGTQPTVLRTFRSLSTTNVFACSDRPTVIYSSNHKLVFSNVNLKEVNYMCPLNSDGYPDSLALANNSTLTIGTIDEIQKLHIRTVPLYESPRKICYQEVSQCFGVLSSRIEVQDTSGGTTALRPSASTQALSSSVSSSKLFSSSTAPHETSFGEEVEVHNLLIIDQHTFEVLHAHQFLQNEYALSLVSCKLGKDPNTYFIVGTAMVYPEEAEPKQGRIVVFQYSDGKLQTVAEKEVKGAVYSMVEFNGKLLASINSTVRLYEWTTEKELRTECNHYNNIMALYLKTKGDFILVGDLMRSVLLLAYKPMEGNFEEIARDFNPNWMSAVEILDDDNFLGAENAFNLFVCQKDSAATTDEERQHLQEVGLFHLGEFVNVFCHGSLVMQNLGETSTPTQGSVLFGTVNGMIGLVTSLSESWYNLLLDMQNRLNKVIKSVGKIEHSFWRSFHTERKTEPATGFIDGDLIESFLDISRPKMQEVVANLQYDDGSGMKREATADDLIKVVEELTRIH
T1 sequence (Q96QD8 other isoform, or with tags, fused parts or gaps): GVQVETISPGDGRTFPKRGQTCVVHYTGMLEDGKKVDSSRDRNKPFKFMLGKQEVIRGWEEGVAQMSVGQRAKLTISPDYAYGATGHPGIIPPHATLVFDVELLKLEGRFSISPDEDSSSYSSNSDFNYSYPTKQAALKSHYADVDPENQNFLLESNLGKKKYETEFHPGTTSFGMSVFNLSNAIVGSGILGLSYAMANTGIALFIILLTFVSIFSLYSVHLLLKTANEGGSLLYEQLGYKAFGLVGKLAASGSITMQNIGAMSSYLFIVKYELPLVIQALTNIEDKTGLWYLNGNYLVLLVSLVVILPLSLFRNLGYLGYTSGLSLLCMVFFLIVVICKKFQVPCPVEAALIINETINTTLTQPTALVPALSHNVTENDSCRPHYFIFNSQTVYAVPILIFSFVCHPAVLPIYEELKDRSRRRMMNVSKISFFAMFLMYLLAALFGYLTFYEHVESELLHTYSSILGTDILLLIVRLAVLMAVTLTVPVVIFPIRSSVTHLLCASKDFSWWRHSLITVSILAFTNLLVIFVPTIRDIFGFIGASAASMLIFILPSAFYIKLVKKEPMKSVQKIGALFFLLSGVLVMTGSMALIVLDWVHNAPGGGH

CC[C@H](C(=O)N1CCCC[C@H]1C(=O)O[C@H](CCc1ccc(OC)c(OC)c1)c1ccccc1OCC(=O)NCCCCCCOc1cccc2c1C(=O)N(C1CCC(=O)NC1=O)C2=O)c1cc(OC)c(OC)c(OC)c1 (stereo partly drawn) [dTAG13]
degradation of knock-in dTAG-HA SLC38A2 (western blot) (HAP1, 0.5 µM cotreatment with media lacking amino acids/FBS, 6 or 10 hours): Near complete degradation
SLC38A2 expression after pre-treatment (immunofluorescence, automated image analysis) (HAP1 knock-in clones, 0.5 µM, 2 hours pre-treatment, 8 hours starvation): completely abrogate any SLC expression; also recorded: completely ablated
reduction of SLC38A2 expression by co-treatment (HAP1 knock-in clones, 0.5 µM, co-treatment with starvation 8 hours): more than 50%
